Laboratory results: PMC6364417, “Kinase inhibitor library screening identifies synergistic drug combinations effective in sensitive and resistant melanoma cells” (Journal of Experimental & Clinical Cancer Research : CR, 2019)

Tests used:
Assay in all cases: Kinase inhibitor library screening, PrestoBlue cell viability, 1 or 10 μM, 72 h
[1] = tested on: IGR37-XP cells (Vemurafenib-resistant); settings: IGR37 XP, 72 h; for cell viability, IGR37 XP, 1μΜ: in %
[2] = tested on: 501Mel-GP cells (Dabrafenib-resistant); settings: 501Mel GP, 72 h
[3] = tested on: 501Mel-XP cells (Vemurafenib-resistant); settings: 501Mel XP, 72 h; for cell viability, 501Mel XP, 1μΜ / cell viability, 501Mel XP, 10μΜ: in %
[4] = tested on: IGR37-GP cells (Dabrafenib-resistant); settings: IGR37 GP, 72 h; for cell viability, IGR37 GP, 1μΜ: in %
501Mel cells (parental) = settings: 501Mel Parental, 72 h; for cell viability, 501Mel Parental, 1μΜ / cell viability, 501Mel Parental, 10μΜ: in %
How it was run: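 Single-point screen at two doses over three days. Parental and BRAF-inhibitor-resistant sublines (XP: Vemurafenib; GP: Dabrafenib) were assessed by PrestoBlue viability, reported relative to untreated cells.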

IGR37 cells (parental) = settings: IGR37 Parental, 72 h; for cell viability, IGR37 Parental, 1μΜ / cell viability, IGR37 Parental, 10μΜ: in %
A375 cells (parental) = settings: A375 Parental, 72 h
[5] = tested on: A375-GP cells (Dabrafenib-resistant); settings: A375 GP, 72 h
[6] = tested on: A375-XP cells (Vemurafenib-resistant); settings: A375 XP, 72 h

Structure (SMILES) | cell viability (kinase inhibitor library screening) ([1]; 1μΜ) [%] | cell viability (kinase inhibitor library screening) ([1]; 10μΜ) [%] | cell viability (kinase inhibitor library screening) ([2]; 1μΜ) [%] | cell viability (kinase inhibitor library screening) ([2]; 10μΜ) [%] | cell viability (kinase inhibitor library screening) ([3]; 1μΜ) [%] | cell viability (kinase inhibitor library screening) ([3]; 10μΜ) [%] | cell viability (kinase inhibitor library screening) ([4]; 1μΜ) [%] | cell viability (kinase inhibitor library screening) ([4]; 10μΜ) [%] | cell viability (kinase inhibitor library screening) (501Mel cells (parental); 1μΜ) [%] | cell viability (kinase inhibitor library screening) (501Mel cells (parental); 10μΜ) [%] | cell viability (kinase inhibitor library screening) (IGR37 cells (parental); 1μΜ) [%] | cell viability (kinase inhibitor library screening) (IGR37 cells (parental); 10μΜ) [%] | cell viability (kinase inhibitor library screening) (A375 cells (parental); 10μΜ) [%] | cell viability (kinase inhibitor library screening) (A375 cells (parental); 1μΜ) [%] | cell viability (kinase inhibitor library screening) ([5]; 10μΜ) [%] | cell viability (kinase inhibitor library screening) ([6]; 10μΜ) [%] | cell viability, IGR37 XP, 10μΜ ([1]; 10μΜ) [%] | cell viability, IGR37 XP, 1μΜ ([1]; 1μΜ) | cell viability, 501Mel GP, 10μΜ ([2]; 10μΜ, in %) | cell viability, 501Mel XP, 1μΜ ([3]; 1μΜ) | further results
Cc1cc(CN2CCN(c3c(Br)cnc4nc(-c5ccc(N6CCN(C)CC6)cc5)[nH]c34)CC2)no1 [CCT137690] | 93.1 | 0.741 | 95.4 | -0.454 | 76.9 | -0.565 | 88.6 | 1.7 | 87.2 | 0.283 | 91.0 | 0.571 | 1.0 | 56.7 | 0.6 | 0.9 |  |  |  |  | cell viability (kinase inhibitor library screening) ([5]; 1μΜ): 56.6%
CN1CCN(c2cccc(Nc3nc4c(-c5ccc(S(C)(=O)=O)cc5)cccn4n3)c2)CC1 [CEP33779] |  |  |  |  |  |  |  |  |  |  |  |  |  |  |  |  | 28.8 | 90.4 | 81.6 | 88.8 | cell viability, 501Mel XP, 10μΜ ([3]; 10μΜ): 71.8; cell viability, IGR37 GP, 10μΜ ([4]; 10μΜ): 67.9%; cell viability, IGR37 GP, 1μΜ ([4]; 1μΜ): 93.0; cell viability, 501Mel Parental, 1μΜ (501Mel cells (parental); 1μΜ): 94.5; cell viability, 501Mel Parental, 10μΜ (501Mel cells (parental); 10μΜ): 91.1; cell viability, IGR37 Parental, 1μΜ (IGR37 cells (parental); 1μΜ): 103.9; cell viability, IGR37 Parental, 10μΜ (IGR37 cells (parental); 10μΜ): 83.9; cell viability, A375 Parental, 10μΜ (A375 cells (parental); 10μΜ, in %): 76.5; cell viability, A375 GP, 10μΜ ([5]; 10μΜ, in %): 77.6; cell viability, A375 XP, 1μΜ ([6]; 1μΜ, in %): 100.1; cell viability, A375 XP, 10μΜ ([6]; 10μΜ, in %): 88.6
CCc1cc2c(cc1N1CCC(N3CCOCC3)CC1)C(C)(C)c1[nH]c3cc(C#N)ccc3c1C2=O [CH5424802] | 106.4 | 5.0 | 104.8 | 72.7 | 99.2 | 32.3 | 105.2 | 10.4 | 109.6 | 80.1 | 103.9 | 96.2 | 64.9 | 106.9 | 71.2 | 75.8 |  |  |  |  | cell viability (kinase inhibitor library screening) ([6]; 1μΜ): 105.6%
C=CC(=O)Nc1cc2c(Nc3ccc(F)c(Cl)c3)ncnc2cc1OCCCN1CCOCC1 [CI-1033 (Canertinib)] |  |  |  |  |  |  |  |  |  |  |  |  |  |  |  |  | 23.7 | 99.0 | 1.4 | 93.9 | cell viability, 501Mel GP, 1μΜ ([2]; 1μΜ, in %): 102.8; cell viability, 501Mel XP, 10μΜ ([3]; 10μΜ): 0.248; cell viability, IGR37 GP, 10μΜ ([4]; 10μΜ): 30.7%; cell viability, IGR37 GP, 1μΜ ([4]; 1μΜ): 92.4; cell viability, 501Mel Parental, 1μΜ (501Mel cells (parental); 1μΜ): 103.3; cell viability, 501Mel Parental, 10μΜ (501Mel cells (parental); 10μΜ): 35.1; cell viability, IGR37 Parental, 1μΜ (IGR37 cells (parental); 1μΜ): 98.8; cell viability, IGR37 Parental, 10μΜ (IGR37 cells (parental); 10μΜ): 53.7; cell viability, A375 Parental, 1μΜ (A375 cells (parental); 1μΜ, in %): 105.5; cell viability, A375 Parental, 10μΜ (A375 cells (parental); 10μΜ, in %): 24.5; cell viability, A375 GP, 1μΜ ([5]; 1μΜ, in %): 99.4; cell viability, A375 GP, 10μΜ ([5]; 10μΜ, in %): 23.3; cell viability, A375 XP, 10μΜ ([6]; 10μΜ, in %): 15.2
